Assay results taken from ChEMBL document CHEMBL1201862, “PubChem BioAssay data set” (2004).
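Cultured in 96-well plates, cells were exposed to test compound for 48 hours across five concentrations. Abbreviation: GI50, concentration required for 50% inhibition of growth.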 Active and inactive are the calls of the source. Cut-off read from the data, not from the text of the source: active = GI50 up to about 1.1 µM and inactive = higher.

Assays:
Experiment in all cases: DTP human tumour cell line panel, 48 h
A549 = system: A549
COLO 205 = system: COLO 205
EKVX = system: EKVX
HCC 2998 = system: HCC 2998
HT-29 = system: HT-29
IGROV-1 = system: IGROV-1
KM12 = system: KM12
NCI-H226 = system: NCI-H226
NCI-H522 = system: NCI-H522
OVCAR-5 = system: OVCAR-5
OVCAR-8 = system: OVCAR-8
RPMI-8226 = system: RPMI-8226
SF-539 = system: SF-539
SK-MEL-28 = system: SK-MEL-28
SK-MEL-5 = system: SK-MEL-5
SK-OV-3 = system: SK-OV-3
T47D = system: T47D
U-251 = system: U-251
UACC-257 = system: UACC-257
UACC-62 = system: UACC-62

Structure (SMILES)	GI50 (A549)	GI50 (COLO 205)	GI50 (EKVX)	GI50 (HCC 2998)	GI50 (HT-29)	GI50 (IGROV-1)	GI50 (KM12)	GI50 (NCI-H226)	GI50 (NCI-H522)	GI50 (OVCAR-5)	GI50 (OVCAR-8)	GI50 (RPMI-8226)	GI50 (SF-539)	GI50 (SK-MEL-28)	GI50 (SK-MEL-5)	GI50 (SK-OV-3)	GI50 (T47D)	GI50 (U-251)	GI50 (UACC-257)	GI50 (UACC-62)
O=[As](O)(O)c1ccc(Cc2ccc([As](=O)(O)O)cc2)cc1	1.81 µM (inactive)	0.617 µM (active)	1.13 µM (inactive)	1.91 µM (inactive)	0.778 µM (active)	0.692 µM (active)	1.91 µM (inactive)	3.78 µM (inactive)	0.419 µM (active)	2.34 µM (inactive)	0.358 µM (active)	0.284 µM (active)	0.193 µM (active)	1.32 µM (inactive)	0.632 µM (active)	2.15 µM (inactive)	0.312 µM (active)	0.371 µM (active)	0.499 µM (active)	1.28 µM (inactive)
COc1cc(N(C)C)ccc1C=c1c2ccccc2n2c1cc(-c1ccccc1)[n+]2C	0.197 µM (active)	0.151 µM (active)	0.575 µM (active)	0.48 µM (active)	0.325 µM (active)	–	0.17 µM (active)	0.518 µM (active)	0.169 µM (active)	0.566 µM (active)	0.163 µM (active)	0.151 µM (active)	0.0813 µM (active)	0.802 µM (active)	0.637 µM (active)	0.347 µM (active)	0.266 µM (active)	0.0581 µM (active)	0.319 µM (active)	0.582 µM (active)
N=C(N)Nc1ccc(-c2ccc(NC(=N)N)cc2)cc1	6.03 µM (inactive)	21.5 µM (inactive)	40.3 µM (inactive)	63 µM (inactive)	45.5 µM (inactive)	20.2 µM (inactive)	33.5 µM (inactive)	15.7 µM (inactive)	32.2 µM (inactive)	11.9 µM (inactive)	43.8 µM (inactive)	19.5 µM (inactive)	20.9 µM (inactive)	45.5 µM (inactive)	16.3 µM (inactive)	> 55.8 µM (inactive)	44.4 µM (inactive)	23.6 µM (inactive)	> 73.5 µM (inactive)	40.1 µM (inactive)
CC1(C)CCCCC1/C=C/C(CC(O)(C(F)(F)F)C(F)(F)F)=N\Nc1ccc([N+](=O)[O-])cc1[N+](=O)[O-] (centres undefined)	1.26 µM (inactive)	1.18 µM (inactive)	–	4.55 µM (inactive)	1.76 µM (inactive)	0.514 µM (active)	2.68 µM (inactive)	0.498 µM (active)	0.49 µM (active)	1.57 µM (inactive)	2.13 µM (inactive)	0.33 µM (active)	0.292 µM (active)	4.23 µM (inactive)	0.395 µM (active)	0.979 µM (active)	0.365 µM (active)	2.33 µM (inactive)	0.962 µM (active)	1.02 µM (active)
O=C(NNS(=O)(=O)c1ccccc1)c1csc(NC(=S)NC2CCCCC2)n1	35.2 µM (inactive)	19.3 µM (inactive)	35.6 µM (inactive)	29 µM (inactive)	33.6 µM (inactive)	26.5 µM (inactive)	36.3 µM (inactive)	67.5 µM (inactive)	26.2 µM (inactive)	52.1 µM (inactive)	33.5 µM (inactive)	44.2 µM (inactive)	37.5 µM (inactive)	–	14.4 µM (inactive)	42.2 µM (inactive)	18.7 µM (inactive)	33.5 µM (inactive)	22.8 µM (inactive)	23.7 µM (inactive)
CCCC(CC)c1c(O)c(O)c(C(CC)CCC)c(C(CC)CCC)c1C(CC)CCC (centres undefined)	> 10 µM (inactive)	> 10 µM (inactive)	> 10 µM (inactive)	> 10 µM (inactive)	> 10 µM (inactive)	> 10 µM (inactive)	> 10 µM (inactive)	> 10 µM (inactive)	> 10 µM (inactive)	> 10 µM (inactive)	> 10 µM (inactive)	> 10 µM (inactive)	> 10 µM (inactive)	> 10 µM (inactive)	> 10 µM (inactive)	> 10 µM (inactive)	> 10 µM (inactive)	> 10 µM (inactive)	> 10 µM (inactive)	> 10 µM (inactive)
O=C1OC(c2ccccc2)N/C1=C\c1ccc2c(c1)OCO2 (centres undefined)	> 100 µM (inactive)	> 100 µM (inactive)	> 100 µM (inactive)	54.2 µM (inactive)	> 100 µM (inactive)	48.6 µM (inactive)	46.7 µM (inactive)	34 µM (inactive)	35.6 µM (inactive)	> 100 µM (inactive)	43.5 µM (inactive)	25.2 µM (inactive)	29.4 µM (inactive)	87.5 µM (inactive)	> 55.8 µM (inactive)	> 100 µM (inactive)	> 100 µM (inactive)	59.3 µM (inactive)	> 100 µM (inactive)	> 100 µM (inactive)
O=C(/C=C/c1c[nH]c2ccccc12)c1ccccc1O	10.5 µM (inactive)	–	5.97 µM (inactive)	11 µM (inactive)	15.1 µM (inactive)	3.83 µM (inactive)	11.3 µM (inactive)	16.7 µM (inactive)	7.64 µM (inactive)	13.6 µM (inactive)	12.9 µM (inactive)	9.27 µM (inactive)	12.6 µM (inactive)	19.2 µM (inactive)	–	15.1 µM (inactive)	1.75 µM (inactive)	13.4 µM (inactive)	15.5 µM (inactive)	8.17 µM (inactive)
Cc1ccc(O)c(C2=CC(c3cccc(Cl)c3)SC(=N)N2)c1 (centres undefined)	23.3 µM (inactive)	16.9 µM (inactive)	17.1 µM (inactive)	16.1 µM (inactive)	20.8 µM (inactive)	19.1 µM (inactive)	24.9 µM (inactive)	16.6 µM (inactive)	16.1 µM (inactive)	26.2 µM (inactive)	37.8 µM (inactive)	17.7 µM (inactive)	23 µM (inactive)	–	16.1 µM (inactive)	26.4 µM (inactive)	23.8 µM (inactive)	18.3 µM (inactive)	20.6 µM (inactive)	13.7 µM (inactive)
CCN(CC)C(=S)N/N=C/c1ccccn1	0.0239 µM (active)	< 0.01 µM (active)	< 0.01 µM (active)	0.149 µM (active)	< 0.01 µM (active)	< 0.01 µM (active)	–	< 0.0138 µM (active)	< 0.01 µM (active)	0.2 µM (active)	< 0.01 µM (active)	< 0.01 µM (active)	< 0.0382 µM (active)	0.187 µM (active)	< 0.0174 µM (active)	< 0.0192 µM (active)	< 0.01 µM (active)	< 0.01 µM (active)	< 0.01 µM (active)	< 0.0328 µM (active)
Cc1cc2[nH]c3c(C#N)c(-c4ccccc4)c(/C=N/c4cccc(C(F)(F)F)c4)c(=O)n3c2cc1C	> 100 µM (inactive)	> 100 µM (inactive)	> 100 µM (inactive)	> 100 µM (inactive)	–	–	38.4 µM (inactive)	> 100 µM (inactive)	39.4 µM (inactive)	> 100 µM (inactive)	> 100 µM (inactive)	70 µM (inactive)	63.4 µM (inactive)	> 100 µM (inactive)	> 100 µM (inactive)	99.5 µM (inactive)	45 µM (inactive)	> 100 µM (inactive)	> 100 µM (inactive)	–
CCc1c2c(cc3c1CC1(C3)Cc3cc4c(c(C(=O)OC)c3C1)CCCC4)CCCC2 (centres undefined)	29.7 µM (inactive)	> 100 µM (inactive)	28.4 µM (inactive)	> 100 µM (inactive)	> 100 µM (inactive)	> 100 µM (inactive)	> 100 µM (inactive)	> 100 µM (inactive)	> 100 µM (inactive)	> 100 µM (inactive)	> 100 µM (inactive)	> 100 µM (inactive)	> 100 µM (inactive)	–	> 100 µM (inactive)	> 100 µM (inactive)	> 100 µM (inactive)	> 100 µM (inactive)	> 100 µM (inactive)	18.5 µM (inactive)
COC(=O)/C(C#N)=C(\Nc1ccccc1)N1CCOCC1	> 100 µM (inactive)	> 100 µM (inactive)	> 100 µM (inactive)	> 100 µM (inactive)	> 100 µM (inactive)	> 100 µM (inactive)	–	> 100 µM (inactive)	> 100 µM (inactive)	> 100 µM (inactive)	> 100 µM (inactive)	> 100 µM (inactive)	> 100 µM (inactive)	> 100 µM (inactive)	> 100 µM (inactive)	> 100 µM (inactive)	> 100 µM (inactive)	> 100 µM (inactive)	> 100 µM (inactive)	–
CCCCC1Cc2ccccc2-c2nc3ccccc3n21 (centres undefined)	–	–	21 µM (inactive)	14.2 µM (inactive)	14.5 µM (inactive)	15.8 µM (inactive)	15.4 µM (inactive)	19.4 µM (inactive)	13 µM (inactive)	16 µM (inactive)	18 µM (inactive)	12.1 µM (inactive)	19.6 µM (inactive)	16.7 µM (inactive)	14.6 µM (inactive)	20.5 µM (inactive)	7.06 µM (inactive)	16.4 µM (inactive)	17.5 µM (inactive)	–
CCOP(=O)(CN1CCNCCNCC1)OCC	> 100 µM (inactive)	> 100 µM (inactive)	> 100 µM (inactive)	> 100 µM (inactive)	> 100 µM (inactive)	> 100 µM (inactive)	> 100 µM (inactive)	> 100 µM (inactive)	> 100 µM (inactive)	> 100 µM (inactive)	> 100 µM (inactive)	> 100 µM (inactive)	> 100 µM (inactive)	> 100 µM (inactive)	> 100 µM (inactive)	> 100 µM (inactive)	> 100 µM (inactive)	> 100 µM (inactive)	> 100 µM (inactive)	> 100 µM (inactive)
